Laboratory results published in patent publication US20090209494A1, “21-DEOXYMACBECIN ANALOGUES USEFUL AS ANTITUMOR AGENTS” (priority 2005, published 2009).
In brackets after ≈: the same amount, converted by molar mass.

Experiments:
[1] = target: Hsp90 (Homo sapiens, UniProt P07900); details: cited from earlier work
[2] = system: DU145; assay: in vitro anticancer activity in combination with compound 14, modified propidium iodide assay; assay type: cell-based, human
Description: Standard agents were applied at 10 concentrations in sextuplicates in half-log increments. […] Growth inhibition is expressed as treated/control×100 (% T/C), and IC70 values for each combination were determined by plotting compound concentration versus cell viability.
In vitro evaluation of 14 for anticancer activity when combined with standard cytotoxic agents against the tumour cell line DU145 in a monolayer proliferation assay was carried out as described in the general methods using a modified propidium iodide assay.

[3] = system: SF268; assay: monolayer proliferation assay (modified propidium iodide assay), SF268; assay type: cell-based, human; details: 4 days exposure, median of duplicate experiments
Description: (§1) In vitro evaluation of compounds for anticancer activity in a panel of 38 human tumour cell lines in a monolayer proliferation assay was carried out at the Oncotest Testing Facility, Institute for Experimental Oncology, Oncotest GmbH, Freiburg.
(§2) The Oncotest cell lines are established from human tumor xenografts as described by Roth et al., (1999). The origin of the donor xenografts was described by Fiebig et al., (1999). Other cell lines are either obtained from the NCl (H460, SF-268, OVCAR-3, DU145, MDA-MB-231, MDA-MB-468) or purchased from DSMZ, Braunschweig, Germany (LNCAP).
(§3) All cell lines, unless otherwise specified, were grown at 37° C. in a humidified atmosphere (95% air, 5% CO2) in a ‘ready-mix’ medium containing RPMI 1640 medium, 10% fetal calf serum, and 0.1 mg/mL gentamicin (PAA, Cölbe, Germany).
(§4) A modified propidium iodide assay was used to assess the effects of the test compound(s) on the growth of human tumour cell lines (Dengler et al., (1995)).
(§5) Briefly, cells were harvested from exponential phase cultures by trypsinization, counted and plated in 96 well flat-bottomed microtitre plates at a cell density dependent on the cell line (5-10.000 viable cells/well). After 24 h recovery to allow the cells to resume exponential growth, 0.010 mL of culture medium (6 control wells per plate) or culture medium containing a 21-deoxymacbecin analogue was added to the wells. Each concentration was plated in triplicate. […] Following 4 days of continuous exposure, cell culture medium with or without test compound was replaced by 0.2 mL of an aqueous propidium iodide (PI) solution (7 mg/L). To measure the proportion of living cells, cells were permeabilized by freezing the plates. After thawing the plates, fluorescence was measured using the Cytofluor 4000 microplate reader (excitation 530 nm, emission 620 nm), giving a direct relationship to the total number of viable cells.
(§6) Growth inhibition was expressed as treated/control×100 (% T/C). For active compounds, IC70 values were estimated by plotting compound concentration versus cell viability.
(§7) In vitro evaluation of the test compounds for anticancer activity in a panel of human tumour cell lines in a monolayer proliferation assay was carried out as described in the general methods using a modified propidium iodide assay.

[4] = system: 251L; assay: monolayer proliferation assay (modified propidium iodide assay), 251L; assay type: cell-based, human; details: 4 days exposure, median of duplicate experiments
Description: as §1, §2, §3, §4, §5, §6, §7

[5] = system: H460; assay: monolayer proliferation assay (modified propidium iodide assay), H460; assay type: cell-based, human; details: 4 days exposure, median of duplicate experiments
Description: as §1, §2, §3, §4, §5, §6, §7

[6] = system: MCF7; assay: monolayer proliferation assay (modified propidium iodide assay), MCF7; assay type: cell-based, human; details: 4 days exposure, median of duplicate experiments
Description: as §1, §2, §3, §4, §5, §6, §7

[7] = system: 394NL; assay: monolayer proliferation assay (modified propidium iodide assay), 394NL; assay type: cell-based, human; details: 4 days exposure, median of duplicate experiments
Description: as §1, §2, §3, §4, §5, §6, §7

[8] = system: OVCAR3; assay: monolayer proliferation assay (modified propidium iodide assay), OVCAR3; assay type: cell-based, human; details: 4 days exposure, median of duplicate experiments
Description: as §1, §2, §3, §4, §5, §6, §7

[9] = system: DU145; assay: monolayer proliferation assay (modified propidium iodide assay), DU145; assay type: cell-based, human; details: 4 days exposure, median of duplicate experiments
Description: as §1, §2, §3, §4, §5, §6, §7

[10] = system: LNCAP; assay: monolayer proliferation assay (modified propidium iodide assay), LNCAP; assay type: cell-based, human; details: 4 days exposure, median of duplicate experiments
Description: as §1, §2, §3, §4, §5, §6, §7

[11] = system: 1138L; assay: monolayer proliferation assay (modified propidium iodide assay), 1138L; assay type: cell-based, human; details: 4 days exposure, median of duplicate experiments
Description: as §1, §2, §3, §4, §5, §6, §7

[12] = Solubility assay; assay type: physicochemical; details: aqueous buffer, kinetic from dmso stock; 2% DMSO in PBS pH 7.3; shaken up to six hours; maximum measurable 0.5 mM
Description: Solutions (25 mM) of the test compounds were prepared by dissolving 3-5 mg aliquots in the appropriate amount of DMSO.
Aliquots (0.01 mL) were added to 0.490 mL of pH 7.3 PBS in glass vials. For each time point, 3 PBS vials were prepared in amber glass vials. For the six hour time point triplicate aliquots in DMSO were also prepared.
The resulting 0.5 mM solutions were shaken for up to six hours, with vials removed for analysis at 1, 3 and 6 hours. Samples were analysed by HPLC (0.025 mL injections).
Solubility in 2% DMSO in PBS at each time point was determined by comparing total peak areas for each chromatogram with mean total peak area for chromatograms produced from the corresponding 6 hour DMSO solutions. (Mean total peak area in DMSO solutions was assumed to be equivalent to a 0.5 mM solution).

[13] = target: Yeast Hsp90 (Saccharomyces cerevisiae, UniProt P02829); assay: Hsp90 binding, isothermal titration calorimetry
Chain of Yeast Hsp90 (P02829 whole entry): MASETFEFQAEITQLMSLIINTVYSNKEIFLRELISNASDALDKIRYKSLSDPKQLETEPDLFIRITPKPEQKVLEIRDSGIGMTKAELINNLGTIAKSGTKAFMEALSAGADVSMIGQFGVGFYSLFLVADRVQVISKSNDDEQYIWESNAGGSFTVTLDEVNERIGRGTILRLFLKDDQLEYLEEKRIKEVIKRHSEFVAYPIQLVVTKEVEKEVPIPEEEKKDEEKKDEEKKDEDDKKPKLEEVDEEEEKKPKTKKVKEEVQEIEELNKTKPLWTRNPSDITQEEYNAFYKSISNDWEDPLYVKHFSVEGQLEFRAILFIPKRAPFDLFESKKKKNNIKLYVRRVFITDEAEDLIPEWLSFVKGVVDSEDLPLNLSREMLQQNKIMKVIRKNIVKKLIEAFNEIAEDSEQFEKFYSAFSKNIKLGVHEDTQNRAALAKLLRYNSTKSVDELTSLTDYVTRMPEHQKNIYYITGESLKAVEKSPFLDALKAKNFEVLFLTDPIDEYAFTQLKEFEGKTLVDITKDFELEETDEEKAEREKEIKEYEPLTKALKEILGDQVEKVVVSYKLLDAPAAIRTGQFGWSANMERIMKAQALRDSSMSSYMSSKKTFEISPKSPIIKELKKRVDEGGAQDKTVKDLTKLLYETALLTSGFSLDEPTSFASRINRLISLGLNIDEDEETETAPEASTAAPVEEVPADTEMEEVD
Description: Yeast Hsp90 was dialysed against 20 mM Tris pH 7.5 containing 1 mM EDTA and 5 mM NaCl and then diluted to 0.008 mM in the same buffer, but containing 2% DMSO. The test compounds were dissolved in 100% DMSO at a concentration of 50 mM and subsequently diluted to 0.1 mM in the same buffer as for Hsp90 with 2% DMSO. Heats of interaction were measured at 30° C. on a MSC system (Microcal), with a cell volume of 1.458 mL. 10 aliquots of 0.027 mL of 0.100 mM of each test compound were injected into 0.008 mM yeast Hsp90. Heats of dilution were determined in a separate experiment by injecting the test compound into buffer containing 2% DMSO, and the corrected data fitted using a nonlinear least square curve-fitting algorithm (Microcal Origin) with three floating variables: stoichiometry, binding constant and change in enthalpy of interaction.

[14] = system: Reverse transcriptase; details: Ono et al., 1982; cited from earlier work
[15] = target: terminal deoxynucleotidyl transferase (Homo sapiens, UniProt P04053); details: Ono et al., 1982; cited from earlier work
Chain of terminal deoxynucleotidyl transferase (P04053 whole entry, species assumed): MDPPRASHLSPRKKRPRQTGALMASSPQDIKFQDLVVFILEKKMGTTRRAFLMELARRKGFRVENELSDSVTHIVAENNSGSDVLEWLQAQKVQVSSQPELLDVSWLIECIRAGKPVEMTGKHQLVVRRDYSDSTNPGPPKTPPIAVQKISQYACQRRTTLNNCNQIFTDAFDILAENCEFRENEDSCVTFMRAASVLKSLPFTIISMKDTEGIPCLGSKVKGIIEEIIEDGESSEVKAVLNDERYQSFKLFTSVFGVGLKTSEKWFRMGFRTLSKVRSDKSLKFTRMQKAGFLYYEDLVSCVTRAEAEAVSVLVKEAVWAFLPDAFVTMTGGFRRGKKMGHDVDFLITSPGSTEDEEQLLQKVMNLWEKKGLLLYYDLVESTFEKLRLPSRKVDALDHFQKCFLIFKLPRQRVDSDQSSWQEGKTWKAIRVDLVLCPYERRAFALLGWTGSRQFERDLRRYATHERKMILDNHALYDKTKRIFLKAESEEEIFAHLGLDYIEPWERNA

[16] = concentration of 14: 0 nM (standard agent alone)

## CO[C@H]1C[C@H](C)Cc2cc(O)cc(c2)NC(=O)/C=C/CC[C@H](OC)[C@@H](OC(N)=O)/C(C)=C/[C@H](C)[C@H]1O [KOSN1559]
[1]; relative to 17-AAG
  binding affinity to Hsp90, greater than 17-AAG: 8 fold
[1]; relative to geldanamycin
  binding affinity to Hsp90, greater than geldanamycin: 4 fold

## O=P1(NCCCl)OCCCN1CCCl (stereo not shown) [ifosfamid]
[2]; combined with 14 at 80 nM
  IC70 of standard agent: 80570 ng/mL
[2]; combined with 14 at 120 nM
  IC70 of standard agent: 52090 ng/mL
[2]; combined with 14 at 160 nM
  IC70 of standard agent: 17320 ng/mL
[2]; [16]
  IC70 of standard agent: 90140 ng/mL

## CO[C@H]1[C@@H](OC)C[C@H](C)[C@@H](OC)C2=CC(=O)C=C(NC(=O)/C(C)=C/C=C\[C@H](C)[C@@H](OC(N)=O)/C(C)=C/[C@@H]1C)C2=O [macbecin]
[3]; 1 μg/mL
  Test/Control (%) at drug concentration: 40%
[3]; 10 μg/mL
  Test/Control (%) at drug concentration: 6%
[4]; 1 μg/mL
  Test/Control (%) at drug concentration: 58%
[4]; 10 μg/mL
  Test/Control (%) at drug concentration: 44%
[5]; 1 μg/mL
  Test/Control (%) at drug concentration: 62%
[5]; 10 μg/mL
  Test/Control (%) at drug concentration: 25%
[6]; 1 μg/mL
  Test/Control (%) at drug concentration: 42%
[6]; 10 μg/mL
  Test/Control (%) at drug concentration: 19%
[7]; 1 μg/mL
  Test/Control (%) at drug concentration: 16%
[7]; 10 μg/mL
  Test/Control (%) at drug concentration: 13%
[8]; 1 μg/mL
  Test/Control (%) at drug concentration: 54%
[8]; 10 μg/mL
  Test/Control (%) at drug concentration: 11%
[9]; 1 μg/mL
  Test/Control (%) at drug concentration: 13%
[9]; 10 μg/mL
  Test/Control (%) at drug concentration: 5%
[10]; 1 μg/mL
  Test/Control (%) at drug concentration: 34%
[10]; 10 μg/mL
  Test/Control (%) at drug concentration: 32%
[11]; 1 μg/mL
  Test/Control (%) at drug concentration: 71%
[11]; 10 μg/mL
  Test/Control (%) at drug concentration: 31%
[12]
  solubility: 81 µM (≈ 45.3 µg/mL)
[13]
  Kd: 240 nM
[14]
  Reverse transcriptase activity inhibition: not inhibited
[15]
  terminal deoxynucleotidyl transferase activity inhibition: not inhibited

## CO[C@@]12[C@H](COC(N)=O)C3=C(C(=O)C(C)=C(N)C3=O)N1C[C@@H]1N[C@@H]12 [mitomycin, mitomycin C]
[2]; combined with 14 at 30 nM
  IC70 of standard agent: 112 ng/mL
[2]; combined with 14 at 50 nM
  IC70 of standard agent: 87 ng/mL
[2]; combined with 14 at 80 nM
  IC70 of standard agent: 56 ng/mL
[2]; [16]
  IC70 of standard agent: 165 ng/mL

## O=C1c2c(O)ccc(O)c2C(=O)c2c(NCCNCCO)ccc(NCCNCCO)c21 [mitoxantrone]
[2]; combined with 14 at 80 nM
  IC70 of standard agent: 1000 ng/mL
[2]; combined with 14 at 120 nM
  IC70 of standard agent: 1250 ng/mL
[2]; combined with 14 at 160 nM
  IC70 of standard agent: 110 ng/mL
[2]; [16]
  IC70 of standard agent: 2080 ng/mL

## CC[C@]1(O)C[C@@H]2CN(CCc3c([nH]c4ccccc34)[C@@](C(=O)OC)(c3cc4c(cc3OC)N(C)[C@H]3[C@@](O)(C(N)=O)[C@H](O)[C@]5(CC)C=CCN6CC[C@]43[C@@H]65)C2)C1 [vindesine]
[2]; combined with 14 at 80 nM
  IC70 of standard agent: 0.8 ng/mL
[2]; combined with 14 at 120 nM
  IC70 of standard agent: 0.6 ng/mL
[2]; combined with 14 at 160 nM
  IC70 of standard agent: 0.1 ng/mL
[2]; [16]
  IC70 of standard agent: 0.9 ng/mL
